The text below walks through data of patent US20260242419A1, “A CYCLIC PEPTIDE FOR TRAPPING INTERLEUKIN-1 BETA” (Merck Sharp & Dohme LLC, priority 2023, published 2026).

Starred links: 1 amine or outer side, 2 acyl side, 3 side chain; linkers in the order of their positions; H or OH if unused. Non-standard residues stand in square brackets, D forms with d. Residues, ends and D or L forms follow the SMILES beside them. Ala(2-carboxypyrimidin-5-yl) = N[C@@H](Cc1cnc(C(=O)O)nc1)C(=O)O; dPro(4R-(4-pyridylmethyl)) = O=C(O)[C@H]1C[C@@H](Cc2ccncc2)CN1; Trp(βS-Me,4-F) = C[C@@H](c1c[nH]c2cccc(F)c12)[C@H](N)C(=O)O; Bip(4'-COOH) = N[C@@H](Cc1ccc(-c2ccc(C(=O)O)cc2)cc1)C(=O)O; dPro(4R-Bzl(4-F)) = O=C(O)[C@H]1C[C@@H](Cc2ccc(F)cc2)CN1; X31 = O=C(O)c1ccc([C@@H](O)[C@H](N[*:1])C(=O)[*:2])cc1; X41 = O=C([C@@H](N[*:1])[C@@H](O)c1ccncc1)[*:2]; Ala(pyrimidin-5-yl) = N[C@@H](Cc1cncnc1)C(=O)O; Phe(4-COOH) = N[C@@H](Cc1ccc(C(=O)O)cc1)C(=O)O; X30 = O=C([C@@H](N[*:1])[C@H](O)c1ccncc1)[*:2]; X44 = CC(=O)N1CCN(C[C@H](N[*:1])C(=O)[*:2])CC1; Bip = N[C@@H](Cc1ccc(-c2ccccc2)cc1)C(=O)O; Pro(cis-4-F) = O=C(O)[C@@H]1C[C@H](F)CN1; Dap(CONH2) = NC(=O)NC[C@H](N)C(=O)O; 4Pal = N[C@@H](Cc1ccncc1)C(=O)O; Dab = NCC[C@H](N)C(=O)O; Aib = CC(C)(N)C(=O)O

For the assay, the target named is T1, IL-1β (Homo sapiens, UniProt P01584).
T1 construct: purchased BioLegend 579404
The experiment in a line: IL-6 assay in MRC5 cells: inhibition of IL-1β induced IL-6 secretion (AlphaLISA). It is filed as cell-based. The conditions noted are these: inhibition of IL-1β induced IL-6 secretion in MRC5 cells; compound pre-incubated 1 hour with recombinant human IL-1β; read-out: MRC5 IC50. In outline: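 Compound was pre-incubated 1 h at ambient temperature with recombinant human IL-1β at 2λ EC80 before adding human lung fibroblast MRC5 cells (3000/well) in EMEM with 0.025% BSA. After overnight culture at 37 °C, 5% CO2, secreted IL-6 in conditioned medium was measured by AlphaLISA; IC50 from 4-parameter logistic fits.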

T1 sequence (P01584 117-269): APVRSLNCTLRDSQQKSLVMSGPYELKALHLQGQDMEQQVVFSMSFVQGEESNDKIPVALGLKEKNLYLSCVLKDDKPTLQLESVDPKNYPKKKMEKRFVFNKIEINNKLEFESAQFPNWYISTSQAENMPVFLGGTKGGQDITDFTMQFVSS

As for `C[C@@H](c1c[nH]c2cccc(F)c12)[C@@H]1NC(=O)[C@@H]2C[C@H](F)CN2C(=O)CNC(=O)[C@H](Cc2ccc(C(=O)O)cc2)NC(=O)[C@H](Cc2ccncc2)NC(=O)[C@H](Cc2ccc(-c3ccc(C(=O)O)cc3)cc2)NC(=O)[C@H]2C[C@@H](Cc3ccncc3)CN2C(=O)CNC(=O)[C@H](CCN)NC(=O)[C@H](CCC(N)=O)NC(=O)[C@H](Cc2cnc(C(=O)O)nc2)NC(=O)C(C)(C)NC(=O)[C@H](Cc2c[nH]c3ccccc23)NC(=O)[C@H](CO)NC(=O)C(C)(C)NC1=O` [Example 268] (cyclo([Bip(4'-COOH)][4Pal][Phe(4-COOH)]G[Pro(cis-4-F)][Trp(βS-Me,4-F)][Aib]SW[Aib][Ala(2-carboxypyrimidin-5-yl)]Q[Dab]G[dPro(4R-(4-pyridylmethyl))])), the IC50 was found to be 0.014 nM.

On to `C[C@@H](c1c[nH]c2cccc(F)c12)[C@@H]1NC(=O)[C@@H]2C[C@H](F)CN2C(=O)CNC(=O)[C@H](Cc2ccc(C(=O)O)cc2)NC(=O)[C@H](Cc2ccncc2)NC(=O)[C@H](Cc2ccc(-c3ccccc3)cc2)NC(=O)[C@H]2C[C@@H](Cc3ccncc3)CN2C(=O)CNC(=O)[C@H](CCN)NC(=O)[C@H](CCC(N)=O)NC(=O)[C@H](Cc2cnc(C(=O)O)nc2)NC(=O)C(C)(C)NC(=O)[C@H](Cc2c[nH]c3ccccc23)NC(=O)[C@H](CO)NC(=O)C(C)(C)NC1=O` [Example 269] (cyclo([Bip][4Pal][Phe(4-COOH)]G[Pro(cis-4-F)][Trp(βS-Me,4-F)][Aib]SW[Aib][Ala(2-carboxypyrimidin-5-yl)]Q[Dab]G[dPro(4R-(4-pyridylmethyl))])), for which the IC50 came to 0.014 nM. In the case of `C[C@@H](c1c[nH]c2cccc(F)c12)[C@@H]1NC(=O)[C@@H]2C[C@H](F)CN2C(=O)CNC(=O)[C@H](Cc2ccc(C(=O)O)cc2)NC(=O)[C@H](Cc2ccncc2)NC(=O)[C@H](Cc2ccc(-c3ccc(C(=O)O)cc3)cc2)NC(=O)[C@H]2C[C@@H](Cc3ccncc3)CN2C(=O)CNC(=O)[C@H](CNC(N)=O)NC(=O)[C@H](CCC(N)=O)NC(=O)[C@H](Cc2cncnc2)NC(=O)C(C)(C)NC(=O)[C@H](Cc2c[nH]c3ccccc23)NC(=O)[C@H](CO)NC(=O)C(C)(C)NC1=O` [Example 270] (cyclo([Bip(4'-COOH)][4Pal][Phe(4-COOH)]G[Pro(cis-4-F)][Trp(βS-Me,4-F)][Aib]SW[Aib][Ala(pyrimidin-5-yl)]Q[Dap(CONH2)]G[dPro(4R-(4-pyridylmethyl))])), the IC50 came to 0.023 nM. For `CC(=O)N1CCN(C[C@@H]2NC(=O)C(C)(C)NC(=O)[C@H](Cc3c[nH]c4ccccc34)NC(=O)[C@H](CCC(=O)O)NC(=O)C(C)(C)NC(=O)[C@H]([C@@H](C)c3c[nH]c4cccc(F)c34)NC(=O)[C@@H]3C[C@H](F)CN3C(=O)CNC(=O)[C@H](Cc3ccc(C(=O)O)cc3)NC(=O)[C@H](Cc3ccncc3)NC(=O)[C@H](Cc3ccc(-c4ccc(C(=O)O)cc4)cc3)NC(=O)[C@H]3C[C@@H](Cc4ccc(F)cc4)CN3C(=O)CNC(=O)[C@H](CO)NC(=O)[C@H](CCC(N)=O)NC2=O)CC1` [Example 271] (cyclo([Bip(4'-COOH)][4Pal][Phe(4-COOH)]G[Pro(cis-4-F)][Trp(βS-Me,4-F)][Aib]EW[Aib][X44]QSG[dPro(4R-Bzl(4-F))])) the value was 0.023 nM; for `C[C@@H](c1c[nH]c2cccc(F)c12)[C@@H]1NC(=O)[C@@H]2C[C@H](F)CN2C(=O)CNC(=O)[C@H](Cc2ccc(C(=O)O)cc2)NC(=O)[C@H](Cc2ccncc2)NC(=O)[C@H](Cc2ccc(-c3ccc(C(=O)O)cc3)cc2)NC(=O)[C@H]2C[C@@H](Cc3ccc(F)cc3)CN2C(=O)CNC(=O)[C@H](CCN)NC(=O)[C@H](CCC(N)=O)NC(=O)[C@H]([C@@H](O)c2ccncc2)NC(=O)C(C)(C)NC(=O)[C@H](Cc2c[nH]c3ccccc23)NC(=O)[C@H](CO)NC(=O)C(C)(C)NC1=O` [Example 272] (cyclo([Bip(4'-COOH)][4Pal][Phe(4-COOH)]G[Pro(cis-4-F)][Trp(βS-Me,4-F)][Aib]SW[Aib][X41]Q[Dab]G[dPro(4R-Bzl(4-F))])), 0.018 nM.

For `C[C@@H](c1c[nH]c2cccc(F)c12)[C@@H]1NC(=O)[C@@H]2C[C@H](F)CN2C(=O)CNC(=O)[C@H](Cc2ccc(C(=O)O)cc2)NC(=O)[C@H](Cc2ccncc2)NC(=O)[C@H](Cc2ccc(-c3ccc(C(=O)O)cc3)cc2)NC(=O)[C@H]2C[C@@H](Cc3ccc(F)cc3)CN2C(=O)CNC(=O)[C@H](CCN)NC(=O)[C@H](CCC(N)=O)NC(=O)[C@H]([C@H](O)c2ccncc2)NC(=O)C(C)(C)NC(=O)[C@H](Cc2c[nH]c3ccccc23)NC(=O)[C@H](CO)NC(=O)C(C)(C)NC1=O` [Example 273] (cyclo([Bip(4'-COOH)][4Pal][Phe(4-COOH)]G[Pro(cis-4-F)][Trp(βS-Me,4-F)][Aib]SW[Aib][X30]Q[Dab]G[dPro(4R-Bzl(4-F))])), the IC50 worked out at 0.013 nM.

For the molecule `C[C@@H](c1c[nH]c2cccc(F)c12)[C@@H]1NC(=O)[C@@H]2C[C@H](F)CN2C(=O)CNC(=O)[C@H](Cc2ccc(C(=O)O)cc2)NC(=O)[C@H]([C@H](O)c2ccncc2)NC(=O)[C@H](Cc2ccc(-c3ccc(C(=O)O)cc3)cc2)NC(=O)[C@H]2C[C@@H](Cc3ccc(F)cc3)CN2C(=O)CNC(=O)[C@H](CCN)NC(=O)[C@H](CCC(N)=O)NC(=O)[C@H](Cc2cncnc2)NC(=O)C(C)(C)NC(=O)[C@H](Cc2c[nH]c3ccccc23)NC(=O)[C@H](CO)NC(=O)C(C)(C)NC1=O` [Example 274] (cyclo([Bip(4'-COOH)][X30][Phe(4-COOH)]G[Pro(cis-4-F)][Trp(βS-Me,4-F)][Aib]SW[Aib][Ala(pyrimidin-5-yl)]Q[Dab]G[dPro(4R-Bzl(4-F))])), the IC50 came out at 0.026 nM. As for `C[C@@H](c1c[nH]c2cccc(F)c12)[C@@H]1NC(=O)[C@@H]2C[C@H](F)CN2C(=O)CNC(=O)[C@H]([C@H](O)c2ccc(C(=O)O)cc2)NC(=O)[C@H](Cc2ccncc2)NC(=O)[C@H](Cc2ccc(-c3ccc(C(=O)O)cc3)cc2)NC(=O)[C@H]2C[C@@H](Cc3ccc(F)cc3)CN2C(=O)CNC(=O)[C@H](CCN)NC(=O)[C@H](CCC(N)=O)NC(=O)[C@H](Cc2cncnc2)NC(=O)C(C)(C)NC(=O)[C@H](Cc2c[nH]c3ccccc23)NC(=O)[C@H](CO)NC(=O)C(C)(C)NC1=O` [Example 275] (cyclo([Bip(4'-COOH)][4Pal][X31]G[Pro(cis-4-F)][Trp(βS-Me,4-F)][Aib]SW[Aib][Ala(pyrimidin-5-yl)]Q[Dab]G[dPro(4R-Bzl(4-F))])), the IC50 amounted to 0.018 nM. Regarding `C[C@@H](c1c[nH]c2cccc(F)c12)[C@@H]1NC(=O)[C@@H]2C[C@H](F)CN2C(=O)CNC(=O)[C@H](Cc2ccc(C(=O)O)cc2)NC(=O)[C@H](Cc2ccncc2)NC(=O)[C@H](Cc2ccc(-c3ccc(C(=O)O)cc3)cc2)NC(=O)[C@H]2C[C@@H](Cc3ccc(F)cc3)CN2C(=O)CNC(=O)[C@H](CCN)NC(=O)[C@H](CCC(N)=O)NC(=O)[C@H](Cc2c[nH]cn2)NC(=O)C(C)(C)NC(=O)[C@H](Cc2c[nH]c3ccccc23)NC(=O)[C@H](CCC(=O)O)NC(=O)C(C)(C)NC1=O` [Example 276] (cyclo([Bip(4'-COOH)][4Pal][Phe(4-COOH)]G[Pro(cis-4-F)][Trp(βS-Me,4-F)][Aib]EW[Aib]HQ[Dab]G[dPro(4R-Bzl(4-F))])), the IC50 came out at 0.017 nM.
